Measurements published in patent US5053006A, “Method for the permanent occlusion of arteries” (priority 1990, dated 1991).

How the values were obtained:
[1] = Absorption / excitation of the dye in tissue; assay type: physicochemical
Excerpt: Examples of lasers that can be used to provide the light beam include the He-Ne laser, the argon ion laser and the argon-pumped dye laser. The 543.5 nm He-Ne laser, for example, can excite rose bengal with an efficiency of 58% of the maximum. (The wavelength at which excitation efficiency for rose bengal is maximal in tissue occurs at 562 nm.) Because the maximum theoretical power output is only 4 or 5 milliwatts, the 543.5 nm He-Ne laser is not used in clinical applications at this time. However, this laser is expected to be particularly useful in permanently occluding relatively low-flow arteries, smaller than about 200 μm, such as those in the choroid of the eye.
The argon ion laser is the most common clinical laser used at this time. Although the commonly used argon 514.5 nm line is only 36% efficient with respect to the maximum of rose bengal absorption, this laser is much more powerful (by at least a factor of 1000) and versatile than the He-Ne laser.
The absorption maximum of erythrosin B in endothelial tissue is at 536 nm, which is closer than that of rose bengal to the standard 514.5 nm wavelength of the argon ion laser.

femoral artery = assay: Argon laser photothrombotic occlusion of femoral artery (Example 1); assay type: in vivo, rat (male Wistar)
Excerpt: Male Wistar rats, each weighing 280 to 330 gm, were anesthetized with 1.5% halothane and maintained on a 70:30 mixture of nitrous oxide and oxygen delivered by a closely fitting Mylar face mask (Watson et al., J. Neurosurg., 66:748-754, 1987, the disclosure of which is hereby incorporated by reference and relied upon). After separation of the temporal musculature, the middle cerebral artery was exposed via a small subtemporal craniectomy produced by a high-speed drill under an operating microscope; the dura was left intact. The common carotid arteries were exposed bilaterally by a midline incision extending from the mental process to the sternal notch; the sternocleidomastoid muscle was then retracted laterally to expose the underlying artery. Bleeding from the operative site was controlled with pressure and Gelfoam. The animal was then prepared for irradiation by filling the surgical cavity with saline, just submerging the exposed blood vessel. The saline solution was kept clear by frequent suction and irrigation. The femoral arteries were exposed by bilateral inguinal incisions and were prepared for irradiation in a fashion similar to that described above.
As assessed by observation of rose bengal fluorescence, thrombus development in the common carotid or femoral arteries followed a course similar to that observed in the middle cerebral artery, except that the thrombus appeared as a […] as viewed through the blood vessel wall. Intense scattering of the incident laser light was also noted at about the time that arterial pulsations at the level of irradiation ceased.
Ultrastructural studies were carried out at either 30 minutes or 7 days following irradiation. Animals were perfused transcardially with 0.9% sodium chloride solution followed by 2% paraformaldehyde and 2.5% glutaraldehyde in a 0.1 M sodium phosphate buffer. Perfusion pressure was monitored throughout the procedure and was maintained at 100 mm Hg. After perfusion fixation, the femoral and common carotid arteries were isolated and placed in fixative for an additional 2 hours. To isolate the middle cerebral artery, the brain was first removed from the cranial vault and placed in fixative for a 2-hour period. Next, the whole brain was placed in phosphate-buffered 1% osmium tetroxide for 2 minutes.

O=C([O-])c1c(Cl)c(Cl)c(Cl)c(Cl)c1-c1c2cc(I)c(=O)c(I)c-2oc2c(I)c([O-])c(I)cc12.[Na+].[Na+] [rose bengal]
excitation efficiency relative to maximum of absorption ([1]; 514.5 nm argon line): 36% | excitation efficiency relative to maximum ([1]; 543.5 nm He-Ne laser): 58% | gain in efficiency of endothelial photosensitization, factor ([1]; argon-pumped dye laser (562 nm) over 514.5 nm argon line): ≥ 3 | wavelength of maximal excitation efficiency / absorption maximum in tissue ([1]; in tissue): 562 nm | complete occlusion, irradiation time (femoral artery; 40 mg/kg i.v., 514.5 nm argon laser): ≤ 3 min | energy fluence at occlusion (femoral artery; 514.5 nm argon laser): about 35 kJ/sq cm | total energy deposited at occlusion (femoral artery; 514.5 nm argon laser): 140 to 180 joules (J) | occlusion, irradiation time (femoral artery; one-half the standard dose (20 mg/kg), two rats): ≤ 4 min
